Data on four compounds can be found in US6682925B1, “Streptomyces strain with insecticidal activity and method of using as an insecticide” (priority 2000, dated 2004).

Type in all cases: cell-based
Set-up in all cases: key: 5: five indicated growth equal to the water control; 1: a rating of one indicated the complete absence of growth; Index values two (2) through four (4) represent intermediate levels of sporulation and growth; 3: Index values two (2) through four (4) represent intermediate levels of sporulation and growth; Index values two (2) through four (4) represent intermediate levels of sporulation and growth; zero (0) indicates a failed or unnecessary test
Settings in all cases: chemical control, all independent replicated tests

One assay deals with Alternaria brassisicola. Briefly: agar overlay plant pathogen growth assay, ABRA. Here is the method:
(§1) The novel Streptomyces galbus strain was grown for testing against plant pathogens in the following manner. The isolated microbe was initially fermented in three distinct actinomycete cultivation media. Media 38 was composed of 2 g/L tomato paste, 2 g/L oat flour, and 1.0 g/L sea salts. Media 31 was composed of 45 g/L oat flour, 2 g/L yeast extract, 6 g/L KH2PO4, and 4.8 g/L Na2HPO4, pH 7. Media 6 was composed of 20 g/L soluble starch, 10 g/L dextrose, 5 g/L yeast extract, 5 g/L N-Z amineA, and 1 g/L CaCO3.
(§2) The microbe was picked from tomato-oat flour agar (2 g/L tomato paste, 2 g/L oat flour, and 20 g/L agar) and introduced to 50 ml conical tubes containing 12 ml of sterile fermentation media capped with a foam plug. The inoculated tubes were incubated at 27±3° C., in an orbital shaker for six days. […]
(§3) The following pathogen/chemical pairs were tested: Alternaria brassisicola (ABRA Benomyl), Botrytris cinerea (BOTC/Benomyl), Monilinuafructicola (MONF/Benomyl), Phytophthora capsici (PCAP/Metalaxyl), Pseudomonas syringae (PSTO/Gentamycin), and Colletotrichum coccoides (COLC/Chlorothalonil). […] The chemical controls scored index ratings of one (1) in all of the independent replicated tests; and media blanks had ratings of five (5).

The subject of the next assay is Monilinuafructicola. Briefly: agar overlay plant pathogen growth assay, MONF. Here is the method:
as §1, §2, §3

Another assay relates to Botrytris cinerea. The experiment in a line: agar overlay plant pathogen growth assay, BOTC. As to the method: as §1, §2, §3
In a further assay the test system is Colletotrichum coccoides. The experiment in a line: agar overlay plant pathogen growth assay, COLC. As to the method: as §1, §2, §3
For another assay, the system named is Phytophthora capsici. The experiment in a line: agar overlay plant pathogen growth assay, PCAP. As to the method: as §1, §2, §3
Another assay relates to Pseudomonas syringae. Briefly: agar overlay plant pathogen growth assay, PSTO. As to the method:
as §1, §2, §3

For the compound `CCCCNC(=O)n1c(NC(=O)OC)nc2ccccc21` [Benomyl], the “ABRA pathogen growth index rating” value with Alternaria brassisicola came out at 1. In addition, the “MONF pathogen growth index rating” value with Monilinuafructicola came to 1. The “BOTC pathogen growth index rating” value in the assay on Botrytris cinerea is 1. With `N#Cc1c(Cl)c(Cl)c(Cl)c(C#N)c1Cl` [Chlorothalonil], the “COLC pathogen growth index rating” value in the assay with Colletotrichum coccoides is 1. For `COCC(=O)N(c1c(C)cccc1C)C(C)C(=O)OC` (stereo not drawn) [Metalaxyl], in the assay with Phytophthora capsici, the “PCAP pathogen growth index rating” value was determined as 1. As to Gentamycin, the “PSTO pathogen growth index rating” value in the assay with Pseudomonas syringae is 1.
